biological target: CYP46A1 (Homo sapiens, UniProt Q9Y6A2); assay: CYP46A1 Enzyme Assay 2 (testosterone substrate, HPLC-MS); format: biochemical; details: read-out: IC50 (CYP46A1 inhibitory activity)
Protocol: Briefly, in a 384-well plate format, 10 μL per well of an enzyme-substrate mixture of CYP46A1 (5 μM final concentration) and Testosterone ([…] final concentration) were dispensed to wells containing test compound. For CYP46A1 titration, 5 μL per well of serially diluted CYP46A1 (concentrations including 10 μM, 5 μM, and 2.5 μM) and Testosterone (concentration of […]) were dispensed. For Testosterone titration, 5 μL per well of serially diluted Testosterone (concentrations including 10 μM, 5 μM, and 2.5 μM) and CYP46A1 (concentration of 5 μM) were dispensed. The plates were centrifuged at 1000 rpm for 30 seconds, and then sealed and incubated at 37° C. for 30 minutes. The plate was removed from the incubator, and then 10 μL per well of NADPH-generating system were dispensed to initiate the reaction. The plates were incubated at 37° C. for 15 minutes, added with 80 μL per well of 100% methanol consisting 1 ng/ml diclofenac as internal standard, and then transferred for HPLC-MS.

Chain of CYP46A1 (Q9Y6A2 whole entry): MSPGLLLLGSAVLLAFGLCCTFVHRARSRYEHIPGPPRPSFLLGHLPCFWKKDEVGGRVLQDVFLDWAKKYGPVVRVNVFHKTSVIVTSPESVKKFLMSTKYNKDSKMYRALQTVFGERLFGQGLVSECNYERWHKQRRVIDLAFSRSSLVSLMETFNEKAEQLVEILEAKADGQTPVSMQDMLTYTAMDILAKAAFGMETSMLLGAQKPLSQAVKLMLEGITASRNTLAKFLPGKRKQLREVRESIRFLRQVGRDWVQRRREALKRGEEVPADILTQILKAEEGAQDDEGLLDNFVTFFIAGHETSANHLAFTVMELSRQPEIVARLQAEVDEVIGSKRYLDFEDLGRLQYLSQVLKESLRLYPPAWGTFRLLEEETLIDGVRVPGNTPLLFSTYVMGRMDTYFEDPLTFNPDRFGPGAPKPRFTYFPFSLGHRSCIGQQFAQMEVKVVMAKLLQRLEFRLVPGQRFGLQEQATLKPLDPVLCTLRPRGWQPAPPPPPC

Structure (SMILES)	IC50 [nM]
N#CC1(Cc2cccc(C(F)(F)F)c2F)CCN(C(=O)c2cccnc2-c2ccncn2)CC1 [Compound A265, 4-(2-fluoro-3-(trifluoromethyl)benzyl)-1-(2-(pyrimidin-4-yl)nicotinoyl)piperidine-4-carbonitrile]	< 100
N#CC1(Cc2ccc(C(F)(F)F)cn2)CCN(C(=O)c2cccnc2-c2ccncn2)CC1 [Compound A228, 1-(2-(pyrimidin-4-yl)nicotinoyl)-4-((5-(trifluoromethyl)pyridin-2-yl)methyl)piperidine-4-carbonitrile]	100 to 1000
N#CC1(Cc2ccc(F)c(C(F)(F)F)c2)CCN(C(=O)c2cccnc2-c2ccncc2)CC1 [Compound A278, 1-([2,4′-bipyridine]-3-carbonyl)-4-(4-fluoro-3-(trifluoromethyl)benzyl)piperidine-4-carbonitrile]	< 100
N#C[C@@]1(Cc2ccc(F)cc2)C[C@H]2CC[C@@H](C1)N2C(=O)c1cccnc1-c1ccncn1 [Compound A252, (1R,3r,5S)-3-(4-fluorobenzyl)-8-(2-(pyrimidin-4-yl)nicotinoyl)-8-azabicyclo[3.2.1]octane-3-carbonitrile]	100 to 1000
C[C@H]1CN(C(=O)c2cccnc2-c2ccncn2)CC[C@]1(C#N)Cc1ccc(F)cc1 [Compound A248, (3R,4R)-4-(4-fluorobenzyl)-3-methyl-1-(2-(pyrimidin-4-yl)nicotinoyl)piperidine-4-carbonitrile]	< 100
N#CC1(Cc2c(F)cc(F)cc2F)CCN(C(=O)c2cccnc2-c2ccncn2)CC1 [Compound A263, 1-(2-(pyrimidin-4-yl)nicotinoyl)-4-(2,4,6-trifluorobenzyl)piperidine-4-carbonitrile]	< 100
CC(c1cc(F)cc(F)c1)C1(C#N)CCN(C(=O)c2cccnc2-c2ccncc2)CC1 (stereo in doubt) [Compound A260, (R)-1-([2,4′-bipyridine]-3-carbonyl)-4-(1-(3,5-difluorophenyl)ethyl)piperidine-4-carbonitrile]	< 100
N#CC1(Cc2cccc(C(F)(F)F)c2)CCN(C(=O)c2cccnc2-c2ccncn2)CC1 [Compound A264, 1-(2-(pyrimidin-4-yl)nicotinoyl)-4-(3-(trifluoromethyl)benzyl)piperidine-4-carbonitrile]	< 100
COc1ccc(CC2(C#N)CCN(C(=O)c3cccnc3-c3ccncn3)CC2)cn1 [Compound A202, 4-((6-methoxypyridin-3-yl)methyl)-1-(2-(pyrimidin-4-yl)nicotinoyl)piperidine-4-carbonitrile]	< 100
N#CC1(Cc2ccccc2F)CCN(C(=O)c2cccnc2-c2ccncc2)CC1 [Compound A12, 1-{[2,4′-bipyridine]-3-carbonyl}-4-[(2-fluorophenyl)methyl]piperidine-4-carbonitrile]	< 100
CCc1ccc(CC2(C#N)CCN(C(=O)c3cccnc3-c3ccncn3)CC2)cc1 [Compound A208, 4-(4-ethylbenzyl)-1-(2-(pyrimidin-4-yl)nicotinoyl)piperidine-4-carbonitrile]	< 100
N#CC1(Cc2ccc(F)cc2)CCN(C(=O)c2ccccc2-c2ccncn2)CC1 [Compound A229, 4-(4-fluorobenzyl)-1-(2-(pyrimidin-4-yl)benzoyl)piperidine-4-carbonitrile]	< 100
N#CC1(Cc2cccc3ccccc23)CCN(C(=O)c2cccnc2-c2ccncn2)CC1 [Compound A225, 4-(naphthalen-1-ylmethyl)-1-(2-(pyrimidin-4-yl)nicotinoyl)piperidine-4-carbonitrile]	< 100
N#CC1(CCCc2ccccc2)CCN(C(=O)c2cccnc2-c2ccncc2)CC1 [Compound A71, 1-{[2,4′-bipyridine]-3-carbonyl}-4-(3-phenylpropyl)piperidine-4-carbonitrile]	< 100
C[C@H](c1ccc(F)cc1F)C1(C#N)CCN(C(=O)c2cccnc2-c2ccncc2)CC1 [Compound A237, (S)-1-([2,4′-bipyridine]-3-carbonyl)-4-(1-(2,4-difluorophenyl)ethyl)piperidine-4-carbonitrile]	< 100
N#CC1(Cc2cccc(F)c2)CCN(C(=O)c2cccnc2-c2ccncc2)CC1 [Compound A13, 1-{[2,4′-bipyridine]-3-carbonyl}-4-[(3-fluorophenyl)methyl]piperidine-4-carbonitrile]	< 100
N#CC1(Cc2ccc(F)cc2)CCN(C(=O)c2cc(C(F)(F)F)ccc2-c2ccncn2)CC1 [Compound A227, 4-(4-fluorobenzyl)-1-(2-(pyrimidin-4-yl)-5-(trifluoromethyl)benzoyl)piperidine-4-carbonitrile]	< 100
N#CC1(Cc2ccc(F)cc2F)CCN(C(=O)c2cccnc2-c2ccncn2)CC1 [Compound A51, 4-(2,4-difluorobenzyl)-1-(2-(pyrimidin-4-yl)nicotinoyl)piperidine-4-carbonitrile]	< 100
N#CC1(Cc2ccc(F)cc2C2CC2)CCN(C(=O)c2cccnc2-c2ccncn2)CC1 [Compound A230, 4-(2-cyclopropyl-4-fluorobenzyl)-1-(2-(pyrimidin-4-yl)nicotinoyl)piperidine-4-carbonitrile]	< 100
N#CC1(CC2CCOCC2)CCN(C(=O)c2cccnc2-c2ccncn2)CC1 [Compound A48, 1-(2-(pyrimidin-4-yl)nicotinoyl)-4-((tetrahydro-2H-pyran-4-yl)methyl)piperidine-4-carbonitrile]	100 to 1000
N#CC1(Cc2cccnc2)CCN(C(=O)c2cccnc2-c2ccncc2)CC1 [Compound A72, 1-{[2,4′-bipyridine]-3-carbonyl}-4-[(pyridin-3-yl)methyl]piperidine-4-carbonitrile]	100 to 1000
N#CC1(Cc2ccc(F)cc2C(F)(F)F)CCN(C(=O)c2cccnc2-c2ccncn2)CC1 [Compound A276, 4-(4-fluoro-2-(trifluoromethyl)benzyl)-1-(2-(pyrimidin-4-yl)nicotinoyl)piperidine-4-carbonitrile]	100 to 1000
N#CC1(Cc2c(F)cc(C(F)(F)F)cc2F)CCN(C(=O)c2cccnc2-c2ccncc2)CC1 [Compound A280, 1-([2,4′-bipyridine]-3-carbonyl)-4-(2,6-difluoro-4-(trifluoromethyl)benzyl)piperidine-4-carbonitrile]	< 100

Next, values leading:

IC50 [nM]	Structure (SMILES)
< 100	N#CC1(Cc2ccccc2Cl)CCN(C(=O)c2cccnc2-c2ccncc2)CC1 [Compound A21, 1-([2,4′-bipyridine]-3-carbonyl)-4-(2-chlorobenzyl)piperidine-4-carbonitrile]
< 100	N#CC1(Cc2ccc(F)c(F)c2)CCN(C(=O)c2cccnc2-c2ccncc2)CC1 [Compound A69, 1-([2,4′-bipyridine]-3-carbonyl)-4-(3,4-difluorobenzyl)piperidine-4-carbonitrile]
< 100	CC(c1ccc(C(F)(F)F)cc1)C1(C#N)CCN(C(=O)c2cccnc2-c2ccncc2)CC1 (stereo in doubt) [Compound A268, (R)-1-([2,4′-bipyridine]-3-carbonyl)-4-(1-(4-(trifluoromethyl)phenyl)ethyl)piperidine-4-carbonitrile]
< 100	N#CC1(Cc2cc(C(F)(F)F)ccc2F)CCN(C(=O)c2cccnc2-c2ccncc2)CC1 [Compound A283, 1-([2,4′-bipyridine]-3-carbonyl)-4-(2-fluoro-5-(trifluoromethyl)benzyl)piperidine-4-carbonitrile]
< 100	CC(c1ccc(C(F)(F)F)cc1)C1(C#N)CCN(C(=O)c2cccnc2-c2ccncc2)CC1 (stereo in doubt) [Compound A269, (S)-1-([2,4′-bipyridine]-3-carbonyl)-4-(1-(4-(trifluoromethyl)phenyl)ethyl)piperidine-4-carbonitrile]
< 100	CC[C@@H](c1ccc(F)cc1)C1(C#N)CCN(C(=O)c2cccnc2-c2ccncn2)CC1 [Compound A216, (S)-4-(1-(4-fluorophenyl)propyl)-1-(2-(pyrimidin-4-yl)nicotinoyl)piperidine-4-carbonitrile]
< 100	CC[C@H](c1ccc(F)cc1)C1(C#N)CCN(C(=O)c2cccnc2-c2ccncn2)CC1 [Compound A215, (R)-4-(1-(4-fluorophenyl)propyl)-1-(2-(pyrimidin-4-yl)nicotinoyl)piperidine-4-carbonitrile]
< 100	N#CC1(Cc2cccc(Cl)c2)CCN(C(=O)c2cccnc2-c2ccncc2)CC1 [Compound A22]
100 to 1000	N#CC1(Cc2ccncc2)CCN(C(=O)c2cccnc2-c2ccncc2)CC1 [Compound A65, 1-([2,4′-Bipyridine]-3-carbonyl)-4-(pyridin-4-ylmethyl)piperidine-4-carbonitrile]
< 100	N#CC1(Cc2ccc3ccccc3c2)CCN(C(=O)c2cccnc2-c2ccncn2)CC1 [Compound A224, 4-(naphthalen-2-ylmethyl)-1-(2-(pyrimidin-4-yl)nicotinoyl)piperidine-4-carbonitrile]
< 100	N#CC1(Cc2ccc(F)cc2F)CCN(C(=O)c2cccnc2-c2ccncc2)CC1 [Compound A284, 1-([2,4′-bipyridine]-3-carbonyl)-4-(2,4-difluorobenzyl)piperidine-4-carbonitrile]
< 100	N#CC1(Cc2ccc(F)cc2)CCN(C(=O)c2cc(C3CC3)ccc2-c2ccncn2)CC1 [Compound A254, 1-(5-cyclopropyl-2-(pyrimidin-4-yl)benzoyl)-4-(4-fluorobenzyl)piperidine-4-carbonitrile]
< 100	N#CC1(Cc2ccccc2C(F)(F)F)CCN(C(=O)c2cccnc2-c2ccncn2)CC1 [Compound A262, 1-(2-(pyrimidin-4-yl)nicotinoyl)-4-(2-(trifluoromethyl)benzyl)piperidine-4-carbonitrile]
